This is an account of results in patent US20120258938A1, “Enzymatic Production or Chemical Synthesis and Uses for 5,7-Dienes and UVB Conversion Products Thereof” (priority 2008, published 2012).

For one assay, the system named is CYP24 promoter. As to the kind of experiment: CYP24-Luc reporter in normal epidermal keratinocytes. The following applies: 24 h. In kind it is cell-based, human. From the text: The CYP24-Luc construct was a generous gift from Dr Tai Cheng (Boston University Medical Campus, Core Lab Director). It was originally developed by Vaisanen et al. (27). The details of the pLuc construct have been described previously (28-29). Normal epidermal keratinocytes were transfected using Lipofectamine Plus (Invitrogen, Carlsbad, Calif.) in Epilife medium with firefly luciferase reporter gene plasmid and with phRL-TK (expresses Renilla luciferase and serves as normalization control; Promega, Madison, Wis.). After transfection, cells were incubated for 24 hours in EpiLife medium with HKGS. Cells were then transferred to fresh media containing the compounds to be tested or vehicle (ethanol) and incubated for 24 hours. The firefly luciferase and Renilla luciferase signals were recorded with a TD-20/20 luminometer (Turner Designs, Sunnyvale, Calif.); background luminescence was subtracted and the resulting promoter-specific firefly signal was divided by the Renilla signal (proportional to the number of transfected cells). The values obtained were divided by the mean of control (untreated) cells.

In another assay the test system is involucrin. As to the kind of experiment: Real-time RT PCR involucrin mRNA, normal human epidermal keratinocytes. In kind it is cell-based. The following applies: 10^−8 M. Here is the method: (§1) RNA was extracted using an Absolutely RNA RT-PCR Miniprep Kit (Stratagene, La Jolla, Calif.). Real time PCR and reverse transcription products were purchased from Applied Biosystems, Foster City, Calif. Reverse transcription was performed using Taqman® Reverse Transcription Reagents. The following PCR products were used: cytokeratin 14: Hs00265033_m1, involucrin: Hs00846307_s1, CYP27A1: Hs00168003_ml, CYP27B1: Hs00168017_ml, 18SrRNA: Hs99999901_s1. The reaction was performed with Taqman® Universal PCR Master Mix; data were collected on an ABI Prism 7700 and analyzed on Sequence Detector 1.9.1. Specific gene amounts were related to 18SrRNA by comparative CT method.

The next assay relates to HaCaT keratinocytes. Briefly: Colony forming (clonogenicity) assay in HaCaT keratinocytes. In kind it is cell-based, human. The conditions noted are these: 10 days. On the procedure: HaCaT and human adult epidermal keratinocytes were cultured and DNA synthesis experiments were performed as described previously (26). Cells were plated in 6-well plates at a density of 20 cells/cm^2 in DMEM (Cellgro, Herndon Va.) containing 5% charcoal-treated fetal bovine serum (Hyclone, Logan, Utah), 1% antibiotic solution (PSA, Sigma, St. Louis, […].) and vehicle or secosteroids. Cells were incubated in 37° C. for 10 days with media being changed every 72 hr. Cells were fixed with 4% paraformaldehyde in PBS overnight, stained with 0.5% crystal violet in PBS for 15 min, rinsed and air-dried. The number and size of the colonies were measured using an ARTEK counter 880 (Dynex Technologies Inc., Chantilly, Va.). Colony forming units were calculated as follows: number of colonies (size>0.5 mm) was divided by the number of cells plated and multiplied by 100.

The subject of another assay is CYP27A1. As to the kind of experiment: Real-time RT PCR CYP27A1 mRNA, normal epidermal keratinocytes. In kind it is cell-based, human. The conditions noted are these: 10^−8 M. On the procedure:
as §1

The next assay concerns CYP27B1. As to the kind of experiment: Real-time RT PCR CYP27B1 mRNA, normal epidermal keratinocytes. In kind it is cell-based, human. The following applies: 10^−8 M. On the procedure:
as §1

Assay [1] has as its system normal epidermal keratinocytes. As to the kind of experiment: Flow cytometry DNA content, normal epidermal keratinocytes. In kind it is cell-based, human. The following applies: 10 nM.
Assay [2] concerns anti-CD3 stimulated DBA/1 Lac J spleen cells. As to the kind of experiment: Cytokine/chemokine production by anti-CD3 stimulated spleen cells (Luminex). In kind it is cell-based, mouse. The conditions noted are these: 5 days; for G-CSF / GM-CSF / IFNγ / IL-1α / IL-6 / IL-10 / IL-17 / IP-10 / KC / MCP-1: spleen cells + anti-CD3 (4 μg/ml) + analogue 10^−7 M, supernatant, one mouse; for Th2 cytokine (IL-10) production: anti-CD3, 10^−7 M. Here is the method: Vitamin D analogues were solubilzed in absolute alcohol (EtOH) and added at 1:100 dilution to cultures of spleen cells from normal DBA/1 Lac J mice (Table 13). […] Therefore, changes are not due to decreased cell viability.
Spleen cells from three normal 8 wk old female DBA/1 Lac J mice were cultured in 96 well tissue culture plates in quadruplicate at 2×10^6 cells/ml in RPMI 1640 medium containing 9% FCS with and without anti-CD3 (4 μg/ml) and with anti-CD3+10^−7M natural vitamin D analogues for 5 days after which time supernatants were harvested and subjected to cytokine multiplex on a Luminex instrument using Milliplex Mouse Kit (values are pg/ml). The general trend in changes in cytokine levels were similar for each of the mice but some produced different levels of each cytokine for each culture additions. Data from one mouse are given and bold numbers indicate those that changed from anti-CD3 stimulated culture with vitamin D analogues added. There was no significant stimulation of IL-1 g, IL-2, IL-4, IL-5, IL-7, IL-9, IL-12 p70, IL-13, IL-15, MIP-2, RANTES or TNFα with the anti-CD3 MOAB.

The test system of the next assay is NFκB. Briefly: NFκB-Luc reporter in HaCaT keratinocytes. In kind it is cell-based, human. The following applies: 100 nM. On the procedure: HaCaT keratinocytes were transfected with NFκB-Luc construct using Lipofectamine Plus (Invitrogen, Carlsbad, Calif.) in DMEM medium with firefly luciferase reporter gene plasmid and with phRL-TK (expresses Renilla luciferase and serves as normalization control; Promega, Madison, Wis.). After transfection cells were incubated for 24 h in complete medium, and then after change to fresh media treated with drug or vehicle (ethanol) at the concentration of 10 nM for 30 minutes, 1 h, 4 h, 16 h and 24 h. The firefly luciferase and Renilla luciferase signals were recorded with a TD-20/20 luminometer (Turner Designs, Sunnyvale, Calif.); background luminescence was subtracted and the resulting promoter specific firefly signal was divided by the Renilla signal (proportional to the number of transfected cells). The values obtained were divided by the mean of control (untreated) cells.

For assay [3], the system named is SK Mel 188 human melanoma cells. As to the kind of experiment: Soft agar colony formation, SKMEL 188 melanoma. In kind it is cell-based. Here is the method:
Growth and survival of prostate cancer cells (PC3) and melanoma cells SKMEL 188 and AbC1 was determined by following their ability to form colonies in soft agar. Cells growing in monolayer culture were trypsinized and resuspended (1,000 cells/well) in 0.25 ml medium containing 0.4% agarose and 5% charcoal stripped serum (HyClone).
Cell suspensions were added to 0.8% agar layer in 24 well plates. […] Each condition was tested in quadruplicate. An ethanol solvent control (amount of ethanol equivalent to test) as well as a media-only control was included in the assay. Cells were allowed to grow at 37° with 5% CO2 over two weeks with secosteroids in fresh media (100 μL) being added after every 72 h. Soft agar colonies were scored and stained with 0.5 mg/ml MTT reagent (Promega), 500 μL/well after two weeks. Colonies were then counted under the microscope and number of units was calculated as number of colonies formed divided by the number of cells seeded×100.

Turning to `C=C1/C(=C\C=C2/CCC[C@]3(C)[C@@H]([C@H](C)CCCC(C)(C)O)CC[C@@H]23)C[C@@H](O)C[C@@H]1O` [1α,25-dihydroxycholecalciferol, (5Z,7E)-9,10-secocholesta-5,7,10(19)-triene-1α,3β,25-triol, reference compound], the “stimulation of transcriptional activity of the CYP24 promoter” value in the assay with CYP24 promoter is recorded as about 21 fold. The “stimulation of involucrin mRNA” value with involucrin (6 h) is about 3.1 fold. For the same molecule, in the assay on HaCaT keratinocytes (Homo sapiens, HaCaT, 240 h, 10^−8 M, read-out: inhibition of colony formation), the inhibition at 0.01 µM came out at 64%. For the same molecule, the “inhibition of CYP27A1 expression” value in the assay with CYP27A1 (24 h) is given as about 2.9 fold. Also, the “inhibition of CYP27B1 expression” value with CYP27B1 (1 h) is listed as about 1.5 fold. In addition, in [1] (24 h), the “cells in G1/0” value was 52±2%, the “cells in G2/M” value turned out to be 35±5% and the “cells in S phase” value is reported as 13±7%. Moreover, in [2], the G-CSF was 11 pg/mL, the GM-CSF was 7 pg/mL, the IFNγ is 0 pg/mL and the IL-1α was found to be 1 pg/mL. Also, in assay [2], the IL-6 was 12 pg/mL, the IL-10 worked out at 1 pg/mL, the IL-17 is 1 pg/mL and the IP-10 was found to be 5 pg/mL. Moreover, in assay [2], the KC was 3 pg/mL and the MCP-1 came to 197 pg/mL.
With `C=C1CC[C@H](O)C/C1=C/C=C1\CCC[C@@]2(C)[C@H]1CC[C@@H]2[C@@](C)(O)CCCC(C)C` [20(OH)D3, (5Z,7E)-9,10-secocholesta-5,7,10(19)-triene-3β,20-diol], the “stimulation of transcriptional activity of the CYP24 promoter” value in the assay on CYP24 promoter is listed as about 2.5 fold. The “stimulation of involucrin mRNA” value in the assay on involucrin (6 h) was 4.7 fold. Besides, the “stimulation of involucrin mRNA” value with involucrin (24 h) is 1.8 fold. Further, the “inhibition of colony formation” value in the assay on HaCaT keratinocytes (10^−7 M) is listed as 58%. In addition, the “inhibition of colony formation” value in the assay on HaCaT keratinocytes (10^−8 M) turned out to be 36%. The “inhibition of CYP27A1 expression” value with CYP27A1 (24 h) is about 3.5 fold. The “inhibition of CYP27A1 expression” value in the assay with CYP27A1 (48 h) is about 2.6 fold. Further, in the assay on CYP27B1 (1 h), the “inhibition of CYP27B1 expression” value was about 4 fold. Further, the “inhibition of CYP27B1 expression” value in the assay on CYP27B1 (48 h) was about 2 fold. In addition, in [1] (48 h), the “cells in G1/0” value turned out to be 52±5%, the “cells in G2/M” value stood at 35±8% and the “cells in S phase” value is given as 13±12%. Besides, in assay [2], the “Th2 cytokine (IL-10) production” value is “increased”, the G-CSF stood at 10 pg/mL, the GM-CSF was determined as 51 pg/mL and the IFNγ came to 494 pg/mL. Besides, in assay [2], the IL-1α stood at 8 pg/mL, the IL-6 came to 55 pg/mL, the IL-10 was 37 pg/mL and the IL-17 turned out to be 59 pg/mL. In [2], the IP-10 is 83 pg/mL, the KC came to 39 pg/mL and the MCP-1 turned out to be 100 pg/mL.
With `C=C1CC[C@H](O)C/C1=C/C=C1\CCC[C@]2(C)[C@@H](C(C)(O)CC(O)CC(C)C)CC[C@@H]12` (stereo partly drawn) [20,23-dihydroxycholecalciferol, (5Z,7E)-9,10-secocholesta-5,7,10(19)-triene-3β,20,23-triol], the NFκB-Luc activity result in the assay on NFκB is reported as “inhibition”. Besides, the “less colonies bigger than 0.5 mm” value in assay [3] (Sk Mel 188, 0.1 nM and 100 nM) is given as “approximately 50%”. Besides, in assay [2], the “Th2 cytokine (IL-10) production” value is recorded as “increased”, the G-CSF turned out to be 103 pg/mL, the GM-CSF was 47 pg/mL and the IFNγ was found to be 271 pg/mL. Besides, in assay [2], the IL-1α came to 11 pg/mL, the IL-6 was found to be 40 pg/mL, the IL-10 amounted to 56 pg/mL and the IL-17 is 57 pg/mL. Also, in [2], the IP-10 came out at 96 pg/mL, the KC worked out at 47 pg/mL and the MCP-1 was determined as 182 pg/mL.
For the molecule `C=C1CC[C@H](O)C/C1=C/C=C1\CCC[C@]2(C)[C@@H](C(C)=O)CC[C@@H]12` [pD3, (5Z,7E)-3β-hydroxy-9,10-secopregna-5,7,10(19)-trien-20-one], the NFκB-Luc activity result in the assay with NFκB was “inhibits NFκB-Luc activity”. In [3] (SKMEL-188, dose dependent), the “colony formation on soft agar” value was “suppress colony formation on soft agar”.

A word on the inhibition: it is how much of the control response was suppressed.
